In patent publication US20080064679A1, “Water Soluble Cannabinoids” (priority 2004, published 2008):
“And” between values parts separate entries of the source, which are not always exact repeats. Identical values can stand only once. Like-named read-outs stand apart in the source and are kept apart here.

How the values were obtained:
mice [1] = assay: Rectal temperature (R.T.), mouse tetrad; assay type: in vivo; details: for ED50: Mus musculus, iv
mice [2] = assay: Tail-flick antinociception (T.F.), mouse tetrad; assay type: in vivo; details: for ED50: Mus musculus, iv
human CB1 receptor [3] = molecular target: T1, human CB1 receptor (Homo sapiens, UniProt P21554); assay: CB1 receptor binding, [3H]CP55,940 displacement in membranes of transfected cells
T1 construct: expressed in transfected cells; b94 says CHO for CB1
T1 sequence (P21554 whole entry): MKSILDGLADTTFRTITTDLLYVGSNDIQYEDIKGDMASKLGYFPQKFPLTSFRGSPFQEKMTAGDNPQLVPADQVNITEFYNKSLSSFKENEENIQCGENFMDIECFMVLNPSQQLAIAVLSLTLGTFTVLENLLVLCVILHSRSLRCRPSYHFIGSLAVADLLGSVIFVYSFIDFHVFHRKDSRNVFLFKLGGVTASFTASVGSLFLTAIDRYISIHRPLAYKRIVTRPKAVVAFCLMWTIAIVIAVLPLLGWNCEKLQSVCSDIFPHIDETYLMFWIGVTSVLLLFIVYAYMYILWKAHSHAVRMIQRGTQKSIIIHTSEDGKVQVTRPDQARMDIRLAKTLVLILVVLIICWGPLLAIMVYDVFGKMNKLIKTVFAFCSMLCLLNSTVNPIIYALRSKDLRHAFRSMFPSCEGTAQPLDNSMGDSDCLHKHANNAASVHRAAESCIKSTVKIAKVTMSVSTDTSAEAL
Description: (§1) For the in vivo studies, the drugs were dissolved in either saline or emulphor:ethanol:saline (E:E:S) as indicated.
(§2) cLogP calculations. Absolute solubility determinations were not performed. Rather, cLogP calculations were performed using the CS ChemDraw Ultra software (Cambridge Soft Corporation, Cambridge, Mass.). Receptor Binding. HEK-293 cells stably expressing the human CB1 receptor were cultured in DMEM with 10% FBS and Chinese Hamster Ovary (CHO) cells stably expressing the human CB2 receptor were cultured in DMEM with 10% FCS. Cells were harvested by replacement of the media with cold phosphate-buffered saline containing 1 mM EDTA followed by centrifugation at 1000×g for 5 min at 4° C. The pellet was resuspended in 50 mM Tris-HCl containing 320 mM sucrose, 2 mM EDTA and 5 mM MgCl2 (pH 7.4) (centrifugation buffer), then centrifuged at 1000×g for 10 min at 4° C., and the resulting supernatant was saved. This process was repeated twice. The supernatant fractions were combined and centrifuged at 40,000×g for 30 min at 4° C. The resulting P2 pellet was resuspended in assay buffer (50 mM Tris-HCl (pH 7.4), 3 mM MgCl2, 0.2 mM EGTA, and 100 mM NaCl) and protein was determined by the method of Bradford ENRfu(Bradford 1976). Membranes were stored at −80° C. until use. […] The assay was incubated at 30° C. for 1 hr and terminated by addition of ice cold 50 mM Tris-HCl plus BSA (1 mg/ml) (pH 7.4) followed by filtration under vacuum through Whatman GF/B glass fiber filters with 3 washes with cold Tris buffer. Bound radioactivity was determined by liquid scintillation spectrophotometry at 50% efficiency after extraction by shaking samples for 30-60 min with Budget-Solve scintillation fluid. Data are reported as the mean±SEM of three experiments, each performed in triplicate. Ki values were calculated from displacement data using EBDA (Equilibrium Binding Data Analysis; BIOSOFT, Milltown, N.J.). [^35S]GTPγS Binding Assays. Concentration-effect curves were generated by incubating membranes (10 μg prepared from CB1 expressing cells as described above) in assay buffer containing BSA (1 mg/ml) with various concentrations of test compounds in the presence of 20 μM GDP and 0.1 nM [^35S]GTPγS in a 1 ml total volume. […] Basal binding was assessed in the absence of agonist, and nonspecific binding was measured in the presence of 10 μM GTPγS. The reaction was incubated for 90 min at 30° C. and terminated by filtration under vacuum through Whatman GF/B glass fiber filters with 3 washes with cold (4° C.) Tris buffer (50 mM Tris-HCl, pH 7.4). Bound radioactivity was determined by liquid scintillation spectrophotometry at 95% efficiency after extraction overnight in ScintiSafe Econo 1 scintillation fluid. Data are reported as mean±SEM of three experiments, each performed in triplicate. Nonlinear regression analysis was conducted by iterative fitting using JMP (SAS for Macintosh). Net-stimulated [^35S]GTPγS binding is defined as [^35S]GTPγS binding in the presence of drug minus basal and percent stimulation is expressed as (net stimulated [^35S]GTPγS binding/basal)×100%. Behavioral Evaluations. All animals were allowed to acclimate to the observation room overnight. Behavioral effects were assessed in the tetrad model in order to measure potency in producing antinociception, catalepsy, hypothermia, and hypomobility. The baselines for tail-flick latency (2-4 seconds) and rectal temperature were determined prior to i.v. injections. Baseline rectal temperatures were measured using a telethermometer and a thermometer probe inserted to 25 mm (Yellow Springs Instrument Co., Yellow Springs, Ohio). The mice were then given either an i.v. i.c.v. injection of the analog. The mice were placed in individual photocell activity chambers 5 min later. Spontaneous activity was monitored for 10 min in a Digiscan Animal Activity Monitor (Omnitech Electronice, Inc., Columbus, Ohio) as measured by the number of interruptions of 16 photocell beams per chamber.

[4] = Description: By “water-soluble” we mean that 1 mg of material in 1 ml of water gives a clear solution and is water miscible.
as §1

human CB1 receptor [5] = molecular target: T1, human CB1 receptor; assay: [35S]GTPγS binding assay in membranes of CB1 expressing cells; assay type: biochemical; details: for EC50: mean±SEM; for Emax: read-out: CB1 % CP Stim
Description: as §1, §2

mice [6] = assay: Relative immobility (R.I.), ring-immobility test, mouse tetrad; assay type: in vivo; details: for ED50: Mus musculus, iv
mice [7] = assay: Spontaneous activity (S.A.), mouse tetrad; assay type: in vivo; details: for ED50: Mus musculus, iv
[8] = maximal GTPγS binding as percentage of stimulation produced by CP 55,940
[9] = vehicle E:E:S (1:1:18), read-out: R.T. ED50 (lowering rectal temperature)
[10] = mice, i.v., vehicle E:E:S (1:1:18), read-out: T.F. ED50 (antinociception in the tail-flick procedure)
[11] = vehicle E:E:S (1:1:18), read-out: R.I. ED50 (relative immobility)
[12] = vehicle E:E:S (1:1:18), read-out: S.A. ED50 (reducing spontaneous activity)
[13] = vehicle saline, read-out: R.T. ED50 (lowering rectal temperature)
[14] = mice, i.v., vehicle saline, read-out: T.F. ED50 (antinociception in the tail-flick procedure)
[15] = vehicle saline, read-out: R.I. ED50 (relative immobility)
[16] = vehicle saline, read-out: S.A. ED50 (reducing spontaneous activity)

Molecule	ED50 (mice [1]; [9])	ED50 (mice [2]; [10])	Ki (human CB1 receptor [3]; CB1 Ki)	Solubility (water-soluble) [4]	Water solubility of the hydrochloride salt [4]	EC50 (human CB1 receptor [5]; CB1 EC50, [35S]GTPγS binding)	Emax (human CB1 receptor [5]; [8])	ED50 (mice [6]; [11])	ED50 (mice [7]; [12])	also measured
1-(2-methyl-4-N-piperidinobutyryloxy) [O-2374]	–	–	–	–	–	–	–	–	–	R.T. ED50 (lowering rectal temperature) (mice [1]; i.v., vehicle saline): 0.72 µmol/kg; T.F. ED50 (antinociception in the tail-flick procedure) (mice [2]; mice, i.v., vehicle saline): 0.41 µmol/kg; Ki (human CB1 receptor [3]; Tables 2b, 3b, 4a, mean±SEM, read-out: CB1 Ki): 4.62 ± 2.2 nM; Solubility (water-soluble) ([4]; 1 mg of analog in 1 ml of water, visual observation): Yes; EC50 (human CB1 receptor [5]; [35S]GTPγS binding, read-out: CB1 EC50): 16.5 ± 6.97 nM; CB1 % CP Stim (human CB1 receptor [5]; [8]): 80.9 ± 3.73%; R.I. ED50 (relative immobility) (mice [6]; i.v., vehicle saline): 0.57 µmol/kg; S.A. ED50 (reducing spontaneous activity) (mice [7]; i.v., vehicle saline): 0.18 µmol/kg
CC1=CC[C@@H]2[C@@H](C1)c1c(O)cc(C(C)(C)CCCCC(N)=O)cc1OC2(C)C [O-2352, Carboxamido]	1.72 µmol/kg	0.84 µmol/kg	13.1 ± 0.61 nM	No	none of the HCl salts was water-soluble	42 ± 4 nM	95 ± 0.3%	0.93 µmol/kg	0.16 µmol/kg	–
CC1=CC[C@@H]2[C@@H](C1)c1c(O)cc(C(C)(C)CCCCC(=O)N3CCOCC3)cc1OC2(C)C [O-2372, Morpholino-carboxamido]	0.07 µmol/kg	0.01 µmol/kg	1.3 ± 0.12 nM	No	none of the HCl salts was water-soluble	5.88 ± 0.42 nM	120 ± 1.11%	0.03 µmol/kg	0.01 µmol/kg	–
CC1=CC[C@@H]2[C@@H](C1)c1c(O)cc(C(C)(C)CCCCC(=O)N3CCCCC3)cc1OC2(C)C [O-2373, Piperidino-carboxamido]	0.03 µmol/kg	0.03 µmol/kg	0.96 ± 0.11 nM	No	none of the HCl salts was water-soluble	13.5 ± 1.81 nM	119 ± 2.05%	0.04 µmol/kg	0.02 µmol/kg	–
CC1=CC[C@@H]2[C@@H](C1)c1c(O)cc(C(C)(C)CCCCC(=O)N3CCN(C)CC3)cc1OC2(C)C [O-2381, Methylepiperazino-carboxamido]	51 µmol/kg	34 µmol/kg	112 ± 14 nM	No	–	–	–	183 µmol/kg	21.4 µmol/kg	Decrease of CB1 receptor affinity and pharmacological potency, piperidine to piperazine (human CB1 receptor [3]): more than a hundred fold
CC1=CC[C@@H]2[C@@H](C1)c1c(O)cc(C(C)(C)CCCCC(=O)N3CCCC3)cc1OC2(C)C [O-2399, Pyrrolidino-carboxamido]	0.23 µmol/kg	0.1 µmol/kg	2.85 ± 0.52 nM	No	none of the HCl salts was water-soluble	275 ± 87.9 nM	117 ± 4.9%	0.15 µmol/kg	0.03 µmol/kg	–
CC1=CC[C@@H]2[C@@H](C1)c1c(O)cc(C(C)(C)CCCCC(=O)N3CCCCCC3)cc1OC2(C)C [O-2421, Homopiperidino-carboxamido]	0.44 µmol/kg	0.16 µmol/kg	4.24 ± 1.01 nM	No	–	23.2 ± 2.06 nM	81.8 ± 8.96%	0.86 µmol/kg	0.15 µmol/kg	–
CC1=CC[C@@H]2[C@@H](C1)c1c(O)cc(C(C)(C)CCCCC(=O)NN3CCCCCC3)cc1OC2(C)C [O-2489, N-(Homo-piperidin-1-yl)-carboxamido]	8.5 µmol/kg	2.53 µmol/kg	15.8 ± 0.44 nM	No	–	86.6 ± 17.4 nM	112 ± 2.32%	20.5 µmol/kg	2.07 µmol/kg	–
CNC(=O)CCCCC(C)(C)c1cc(O)c2c(c1)OC(C)(C)[C@@H]1CC=C(C)C[C@@H]21 [O-2490, N-(Methyl)carboxamido]	> 2.5 µmol/kg	1.37 µmol/kg	18.7 ± 0.58 nM	No	–	64.2 ± 10.6 nM	92.7 ± 7.81%	> 2.5 µmol/kg	0.49 µmol/kg	–
CC1=CC[C@@H]2[C@@H](C1)c1c(O)cc(C(C)(C)CCCCC(=O)NN3CCCC3)cc1OC2(C)C [O-2543, N-(Pyrrolidin-yl)-carboxamido]	8.19 µmol/kg	0.75 µmol/kg	23.3 ± 3.4 nM	No	–	81.1 ± 40 nM	71.3 ± 4.23%	25.8 µmol/kg	0.71 µmol/kg	–
CC1=CC[C@@H]2[C@@H](C1)c1c(O)cc(C(C)(C)CCCCC(=O)NN3CCOCC3)cc1OC2(C)C [O-2544, N-(Morpholin-1-yl)-carboxamido]	0.25 µmol/kg	0.48 µmol/kg	5.97 ± 0.65 nM	No	none of the HCl salts was water-soluble	39.7 ± 11.4 nM	116 ± 3.71%	0.63 µmol/kg	0.17 µmol/kg	–
CC1=CC[C@@H]2[C@@H](C1)c1c(O)cc(C(C)(C)CCCCn3ccnc3)cc1OC2(C)C [O-2545, Imidazol-1-yl]	0.04 µmol/kg	0.07 µmol/kg	1.34 nM and 1.47 nM	–	–	29.3 nM and 4.57 nM	–	0.13 µmol/kg	0.01 µmol/kg	ED50 (mice [1]; figure legends, i.v., saline, read-out: ED50 after i.v. administration, rectal temperature): 0.29 µmol/kg; ED50 (mice [1]; [13]): 0.29 µmol/kg; ED50 (mice [2]; figure legends, mice, i.v., saline, read-out: ED50 after i.v. administration, tail-flick response): 0.16 µmol/kg; ED50 (mice [2]; [14]): 0.16 µmol/kg; Analgesia in the tail-flick procedure (mice [2]; oral 10 mg/kg, at two hrs, mean±sem): 85±11%; ED50 (mice [6]; figure legends, i.v., saline, read-out: ED50 after i.v. administration, relative immobility): 0.14 µmol/kg; ED50 (mice [6]; [15]): 0.14 µmol/kg; ED50 (mice [7]; figure legends, i.v., saline, read-out: ED50 after i.v. administration, spontaneous activity): 0.09 µmol/kg; ED50 (mice [7]; [16]): 0.09 µmol/kg
CC1=CC[C@@H]2[C@@H](C1)c1c(O)cc(C(C)(C)CCCCn3ccnc3C)cc1OC2(C)C [O-2651, 2-Methyl-imidazol-1-y1]	–	–	13.9 ± 0.83 nM	Yes	–	82.9 ± 45.7 nM	33.4 ± 3.41%	–	–	ED50 (mice [1]; [13]): 3.58 µmol/kg; ED50 (mice [2]; [14]): 1.75 µmol/kg; ED50 (mice [6]; [15]): 4.29 µmol/kg; ED50 (mice [7]; [16]): 1.46 µmol/kg
CC1=CC[C@@H]2[C@@H](C1)c1c(O)cc(C(C)(C)CCCCc3ncc[nH]3)cc1OC2(C)C [O-2737, 1H-Imidazol-2-yl]	> 24.5 µmol/kg	> 24.5 µmol/kg	54 nM and 54.9 nM	Yes	–	–	–	> 24.5 µmol/kg	> 24.5 µmol/kg	ED50 (mice [1]; [13]): > 2.2 µmol/kg; ED50 (mice [2]; [14]): > 2.2 µmol/kg; ED50 (mice [6]; [15]): > 2.2 µmol/kg; ED50 (mice [7]; [16]): > 2.2 µmol/kg
